Measurements taken from patent US20060276485A1, “Substituted piperidine and piperazine derivatives as melanocortin-4 receptor modulators” (priority 2003, published 2006).
Entries after “also recorded” stand apart in the source; their conditions may differ. Where two headings read alike, the source gives them in different places.

Legend:
[1] = target: T1, human melanocortin-4 receptor (hMC4-R) (Homo sapiens, UniProt P32245); assay: Membrane binding assay: competition with fluorescence labeled NDP-alpha-MSH, fluorescence polarization
T1 construct: expressed in transfected cells; host or cells: HEK293 cells
T1 sequence (P32245 whole entry): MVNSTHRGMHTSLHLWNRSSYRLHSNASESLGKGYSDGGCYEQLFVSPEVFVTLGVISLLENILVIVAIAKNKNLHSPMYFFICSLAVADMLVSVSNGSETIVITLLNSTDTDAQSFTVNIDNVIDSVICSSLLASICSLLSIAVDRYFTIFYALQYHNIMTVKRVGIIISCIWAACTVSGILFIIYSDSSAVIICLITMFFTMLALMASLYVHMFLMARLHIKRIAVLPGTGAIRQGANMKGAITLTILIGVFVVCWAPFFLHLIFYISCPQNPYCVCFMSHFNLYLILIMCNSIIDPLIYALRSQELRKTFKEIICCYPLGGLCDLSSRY
Experimental: A membrane binding assay is used to identify competitive inhibitors of fluorescence labeled NDP-alpha-MSH binding to HEK293 cell membrane preparations expressing human melanocortin receptors.
The test compound or unlabeled NDP-alpha-MSH is dispensed at varying concentrations to a 384 well microtiter plate. Fluorescence labeled NDP-alpha-MSH is dispensed at a single concentration, followed by addition of membrane preparations. The plate is incubated for 5 h at room temperature.
The degree of fluorescence polarization is determined with a fluorescence polarization microplate reader.

[2] = target: T1, human melanocortin-4 receptor (hMC4-R); assay: Functional cellular cAMP assay in HEK293 cells, fluorescence polarization; format: cell-based
Experimental: A functional cellular assay, based on competition between unlabeled CAMP and a fixed quantity of fluorescence labeled CAMP for a limited number of binding sites on a CAMP specific antibody, is used to discriminate melanocortin receptor agonists from antagonists by fluorescence polarization.
HEK293 cells expressing one of the human melanocortin receptors are transferred to 384 well microtiter plates, an appropriate amount of CAMP antibody is added, followed by the addition of different concentrations of the test compound to effect cAMP production. Cells are lysed and a fluorescence labeled cAMP conjugate is dispensed. The plate is read on a fluorescence polarization microplate reader and the amount of cAMP produced as a response to a test compound is compared to the production of CAMP resulting from stimulation with NDP-alpha-MSH. […]

[3] = Spontaneous feeding paradigm: food intake in rats; format: in vivo, male Wistar rats; settings: for increase in cumulative food intake: compared to vehicle; for activity in the spontaneous feeding paradigm: significant increase in food intake at dose of 3 to 30 mg/kg p.o.
Experimental: Food intake in rats is measured after i.p. or p.o. administration of the test compound (see e.g. Chen, A. S. et al. Transgenic Res 2000 April 9(2):145-54).
Selected Examples of the present invention were active in the rat model at 3, 10 or 30 mg/kg after i.p. and p.o. administration of the test compound, respectively, using male Wistar rats (n=4).

melanocortin-4 receptor [4] = target: T2, melanocortin-4 receptor (Homo sapiens, UniProt P32245); settings: J. Med. Chem. 2004, 47, 744-755; read-out: melanocortin-4 receptor binding Ki; cited from earlier work
T2 sequence (P32245 whole entry): as above

melanocortin-4 receptor [5] = target: T2, melanocortin-4 receptor; settings: cited from earlier work; for EC50: read-out: melanocortin-4 receptor activation EC50
[6] = Bioorg. Med. Chem. Lett. 2003, 13, 3793-3796

Row | SMILES | IC50 [1] | % activation functional assay ([2]; relative to NDP-alpha-MSH) | also measured
1 | COc1ccc2oc(C(=O)N[C@@H](Cc3ccc(Cl)cc3)C(=O)N3CCC(c4ccccc4CN4CCCC4=O)CC3)cc(=O)c2c1 [Example 17] | – | – | increase in cumulative food intake ([3]; 10 mg/kg p.o., 2 hours following administration): 3100%; increase in cumulative food intake ([3]; 10 mg/kg p.o., 4 hours following administration): 540%; activity in the spontaneous feeding paradigm [3]: active
2 | O=C(N[C@H](Cc1ccc2ccccc2c1)C(=O)N1CCC(c2ccccc2CN2CCCC2=O)CC1)c1cc(=O)c2ccccc2o1 [Example 91] | 120 nM | does not activate; also recorded: no activation | –
3 | O=C(N[C@H](Cc1ccc(Cl)cc1)C(=O)N1CCC(c2ccccc2CN2CCC2=O)CC1)c1cc(=O)c2ccccc2o1 [Example 178] | 200 nM | does not activate; also recorded: no activation | –
4 | O=C(N[C@@H](Cc1ccc(Cl)cc1)C(=O)N1CCC(c2ccccc2CN2CCCCCC2=O)CC1)c1cc(=O)c2ccccc2o1 [Example 179] | 500 nM | does not activate; also recorded: no activation | –
5 | O=C(N[C@H](Cc1ccc(Cl)cc1)C(=O)N1CCC(c2ccccc2CN2CCCCCC2=O)CC1)c1cc(=O)c2ccccc2o1 [Example 180] | 47 nM | does not activate; also recorded: no activation | –
6 | O=C(N[C@@H](Cc1ccc(Cl)cc1)C(=O)N1CCN(c2ccccc2CN2CCCC2=O)CC1)c1cc(=O)c2ccccc2o1 [Example 181] | 770 nM | does not activate; also recorded: no activation | –
7 | O=C(N[C@H](Cc1ccc(Cl)cc1)C(=O)N1CCN(c2ccccc2CN2CCCC2=O)CC1)c1cc(=O)c2ccccc2o1 [Example 182] | 61 nM | – | % activation functional assay ([2]; at 10 μM): 15%@10 μM; % activation functional assay ([2]; at 10 μM, listed as example 182): little or no activation; increase in cumulative food intake ([3]; 3 mg/kg p.o., 2 hours following administration): 273%; increase in cumulative food intake ([3]; 3 mg/kg p.o., 4 hours following administration): 204%; increase in cumulative food intake ([3]; 3 mg/kg p.o., 6 hours following administration): 156%; increase in cumulative food intake ([3]; 3 mg/kg p.o., 7 hours following administration): 197%; activity in the spontaneous feeding paradigm [3]: active
8 | O=C(N[C@H](Cc1ccc2ccccc2c1)C(=O)N1CCN(c2ccccc2CN2CCCC2=O)CC1)c1cc(=O)c2ccccc2o1 [Example 267] | 100 nM | does not activate; also recorded: no activation | –
9 | CS(=O)(=O)Nc1ccccc1N1CCN(C(=O)[C@@H](Cc2ccc(Cl)cc2)NC(=O)[C@H]2Cc3ccccc3CN2)CC1 [WO03009850 (example 1)] | 500 nM | 96% | EC50 [2]: 3700 nM; Ki (melanocortin-4 receptor [4]): 220 nM; stimulation of melanocortin-4 receptor (melanocortin-4 receptor [5]; [6]): 100%; EC50 (melanocortin-4 receptor [5]; [6]): 380 nM; EC50 (melanocortin-4 receptor [5]; J. Med. Chem. 2004, 47, 744-755): 16 nM

Second part, led by results:

Row | IC50 [1] | SMILES | % activation functional assay ([2]; relative to NDP-alpha-MSH) | also measured
10 | 200 nM | O=C(N[C@@H](Cc1ccc(Cl)cc1)C(=O)N1CCC(c2ccccc2CN2CCCC2=O)CC1)c1cc(=O)c2ccccc2o1 [Example 1] | does not activate; also recorded: no activation | increase in cumulative food intake ([3]; 30 mg/kg p.o., 4 hours following administration): 159%; increase in cumulative food intake ([3]; 30 mg/kg p.o., 6 hours following administration): 131%; increase in cumulative food intake ([3]; 30 mg/kg p.o., 7 hours following administration): 148%; activity in the spontaneous feeding paradigm [3]: active
11 | 200 nM | O=C(N[C@@H](Cc1ccc(Cl)cc1)C(=O)N1CCC(c2ccccc2CN2CCCCC2=O)CC1)c1cc(=O)c2ccccc2o1 [Example 92] | does not activate; also recorded: no activation | –
12 | 51 nM | O=C(N[C@H](Cc1ccc(Cl)cc1)C(=O)N1CCC(c2ccccc2CN2CCCCC2=O)CC1)c1cc(=O)c2ccccc2o1 [Example 93] | does not activate; also recorded: no activation | –
13 | 36 nM | O=C(N[C@H](Cc1ccc(Cl)cc1)C(=O)N1CCC(c2ccccc2CN2CCCC2=O)CC1)c1cc(=O)c2ccccc2o1 [example 2] | 43% | EC50 [2]: 5700 nM
